From patent US12129246B1, “Hydroquinazoline derivatives for the treatment of a disease or disorder” (Novartis AG, priority 2023, dated 2024) come the findings set out here.

Molecules are shown by their SMILES.

The target of the assay is T1, human NPR1 (Homo sapiens, UniProt P16066).
T1 construct: host or cells: CHO-K1
T1 sequence (P16066 33-1061): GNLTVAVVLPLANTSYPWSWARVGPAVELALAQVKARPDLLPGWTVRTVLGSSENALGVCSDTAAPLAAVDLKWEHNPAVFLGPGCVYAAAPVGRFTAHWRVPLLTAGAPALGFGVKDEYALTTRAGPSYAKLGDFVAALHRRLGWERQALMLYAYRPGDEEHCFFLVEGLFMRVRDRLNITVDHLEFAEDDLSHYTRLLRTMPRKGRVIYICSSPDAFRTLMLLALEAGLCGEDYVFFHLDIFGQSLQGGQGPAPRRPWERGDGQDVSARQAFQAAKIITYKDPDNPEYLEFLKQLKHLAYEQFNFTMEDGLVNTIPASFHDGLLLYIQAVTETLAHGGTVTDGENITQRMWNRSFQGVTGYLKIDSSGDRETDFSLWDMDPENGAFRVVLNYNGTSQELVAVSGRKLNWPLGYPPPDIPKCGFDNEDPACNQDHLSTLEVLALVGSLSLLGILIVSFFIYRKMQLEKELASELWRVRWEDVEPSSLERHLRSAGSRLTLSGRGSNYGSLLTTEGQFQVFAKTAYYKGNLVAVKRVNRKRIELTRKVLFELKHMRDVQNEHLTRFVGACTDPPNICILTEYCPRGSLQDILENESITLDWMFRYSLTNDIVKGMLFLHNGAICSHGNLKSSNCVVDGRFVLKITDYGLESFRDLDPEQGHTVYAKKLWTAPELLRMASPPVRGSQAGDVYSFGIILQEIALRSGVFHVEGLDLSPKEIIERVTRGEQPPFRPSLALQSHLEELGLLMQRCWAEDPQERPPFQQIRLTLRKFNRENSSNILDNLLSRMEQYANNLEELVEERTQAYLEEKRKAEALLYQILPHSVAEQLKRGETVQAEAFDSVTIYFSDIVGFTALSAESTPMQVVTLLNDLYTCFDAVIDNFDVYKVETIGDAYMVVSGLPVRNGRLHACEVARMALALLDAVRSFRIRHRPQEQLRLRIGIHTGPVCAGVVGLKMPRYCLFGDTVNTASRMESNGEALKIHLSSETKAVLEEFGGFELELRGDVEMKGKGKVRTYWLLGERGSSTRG
In words: Cellular cGMP production assay, human NPR1 expressing CHO-K1 cells (CisBio HTRF). The format is cell-based. The note with it: for AC50: cGMP production, 30 min at 37° C., 12-point dose-response from 30 μM; for Human NPR1 Amax (% of ANP): maximum cGMP production as percentage of the maximum cGMP produced with ANP. The protocol: Cellular cGMP is a major second messenger that mediates cell activities and is synthesized by activated NPR1 triggered by binding of the natural ligand ANP. […] The assay was performed according to manufacturer's instructions with minor deviations. […] All compound stocks were diluted in PBS+0.1% BSA at 2-fold the final assay concentration. After addition of 10 μL/well of assay buffer (PBS+0.1% BSA+1 mM IBMX) and 10 μL/well of the compounds in different concentrations (12-point dose-response with 3-fold dilutions from a top concentration of 30 μM), the plate was incubated for 30 min at 37° C. to allow for cGMP production. In parallel, a standard curve using a calibrator (contained in the kit) was generated. The cells were lysed and a mix of cGMP-d2 and anti-cGMP-cryptate was added and incubated for 1 h at room temperature. The readout was performed using an Envision plate reader (PerkinElmer) with an excitation wavelength of 317 nm and an emission wavelength of 665 nm. cGMP concentration (Delta F [° %]) was calculated according to the following formulae: […]

As usually defined, the AC50 is the concentration giving half of the maximal activity seen. The low end stands for greater potency, the high end for weaker potency. As for `CC[C@H]([C@H]1CC[C@H](C(=O)O)CC1)N(C)c1nc2c(c(N[C@@H](CN3CCC[C@@H]4C[C@@H]43)c3cnn(C)c3)n1)C[C@H](c1ccccc1)CC2` [Compound 177, (1R,4r)-4-((R)-1-(((R)-4-(((R)-2-((1S,6R)-2-azabicyclo[4.1.0]heptan-2-yl)-1-(1-methyl-1H-pyrazol-4-yl)ethyl)amino)-6-phenyl-5,6,7,8-tetrahydroquinazolin-2-yl)(methyl)amino)propyl)cyclohexane-1-carboxylic acid], the half-maximal activity concentration (AC50) amounted to 488 nM and the “Human NPR1 Amax (% of ANP)” value was 107.75 % of ANP.
For `CC[C@H]([C@H]1CC[C@H](C(=O)O)CC1)N(C)c1nc2c(c(N[C@@H](CN3CC[C@@H](O)[C@H](C)C3)c3cnn(C)c3)n1)C[C@H](c1ccccc1)CC2` [Compound 179, (1R,4r)-4-((R)-1-(((R)-4-(((R)-2-((3R,4R)-4-hydroxy-3-methylpiperidin-1-yl)-1-(1-methyl-1H-pyrazol-4-yl)ethyl)amino)-6-phenyl-5,6,7,8-tetrahydroquinazolin-2-yl)(methyl)amino)propyl)cyclohexane-1-carboxylic acid], in that order: 2710 nM and 97.72 % of ANP.
For `CC[C@H]([C@H]1CC[C@H](C(=O)O)CC1)N(C)c1nc2c(c(N[C@@H](CN3CCC[C@](O)(CC)C3)c3cnn(C)c3)n1)C[C@H](c1ccccc1)CC2` [Compound 178, (1R,4r)-4-((R)-1-(((R)-4-(((R)-2-((R)-3-ethyl-3-hydroxypiperidin-1-yl)-1-(1-methyl-1H-pyrazol-4-yl)ethyl)amino)-6-phenyl-5,6,7,8-tetrahydroquinazolin-2-yl)(methyl)amino)propyl)cyclohexane-1-carboxylic acid], in that order: 362 nM and 112.78 % of ANP.
For the molecule `CC[C@@H](Nc1nc2c(c(N[C@@H](CN3CCCC(CF)C3)c3cnn(C)c3)n1)C[C@H](c1cccc(F)c1)CC2)[C@H]1CC[C@H](C(=O)O)CC1` (stereo partly drawn) [Compound 175, (1R,4r)-4-((1R)-1-(((6R)-4-(((1R)-2-(3-(fluoromethyl)piperidin-1-yl)-1-(1-methyl-1H-pyrazol-4-yl)ethyl)amino)-6-(3-fluorophenyl)-5,6,7,8-tetrahydroquinazolin-2-yl)amino)propyl)cyclohexane-1-carboxylic acid], the AC50 is 89 nM and the “Human NPR1 Amax (% of ANP)” value is on record as 109.91 % of ANP.
For `CC[C@H]([C@H]1CC[C@H](C(=O)O)CC1)N(C)c1nc2c(c(N[C@@H](CN3C[C@@H](C)C[C@H](OC)C3)c3cnn(C)c3)n1)C[C@H](c1ccccc1)CC2` [Compound 184, (1R,4r)-4-((R)-1-(((R)-4-(((R)-2-((3S,5S)-3-methoxy-5-methylpiperidin-1-yl)-1-(1-methyl-1H-pyrazol-4-yl)ethyl)amino)-6-phenyl-5,6,7,8-tetrahydroquinazolin-2-yl)(methyl)amino)propyl)cyclohexane-1-carboxylic acid], in that order: 940 nM and 103.67 % of ANP.
In the same order, the values of `CC[C@H]([C@H]1CC[C@H](C(=O)O)CC1)N(C)c1nc2c(c(N[C@@H](CN3C[C@H](C)C[C@@H](OC)C3)c3cnn(C)c3)n1)C[C@H](c1ccccc1)CC2` [Compound 183, (1R,4r)-4-((R)-1-(((R)-4-(((R)-2-((3R,5R)-3-methoxy-5-methylpiperidin-1-yl)-1-(1-methyl-1H-pyrazol-4-yl)ethyl)amino)-6-phenyl-5,6,7,8-tetrahydroquinazolin-2-yl)(methyl)amino)propyl)cyclohexane-1-carboxylic acid] are 380 nM and 98.57 % of ANP.
For `CC[C@H]([C@H]1CC[C@H](C(=O)O)CC1)N(C)c1nc2c(c(N[C@@H](CN3CCC[C@@](C)(O)C3)c3cnn(C)c3)n1)C[C@H](c1ccccc1)CC2` [Compound 182, (1R,4r)-4-((R)-1-(((R)-4-(((R)-2-((R)-3-hydroxy-3-methylpiperidin-1-yl)-1-(1-methyl-1H-pyrazol-4-yl)ethyl)amino)-6-phenyl-5,6,7,8-tetrahydroquinazolin-2-yl)(methyl)amino)propyl)cyclohexane-1-carboxylic acid], in that order: 250 nM and 110.06 % of ANP.
With `CC[C@H]([C@H]1CC[C@H](C(=O)O)CC1)N(C)c1nc2c(c(N[C@@H](CN3CCCC4(CC4)C3)c3cnn(C)c3)n1)C[C@H](c1ccccc1)CC2` [Compound 180, (1R,4r)-4-((R)-1-(methyl((R)-4-(((R)-1-(1-methyl-1H-pyrazol-4-yl)-2-(5-azaspiro[2.5]octan-5-yl)ethyl)amino)-6-phenyl-5,6,7,8-tetrahydroquinazolin-2-yl)amino)propyl)cyclohexane-1-carboxylic acid], half-maximal activity (AC50) was put at 465 nM and the “Human NPR1 Amax (% of ANP)” value is 86.52 % of ANP.
In the same order, the values of `CC[C@H]([C@H]1CC[C@H](C(=O)O)CC1)N(C)c1nc2c(c(N[C@@H](CN3CCC[C@H]4C[C@H]43)c3cnn(C)c3)n1)C[C@H](c1ccccc1)CC2` [Compound 176, (1R,4r)-4-((R)-1-(((R)-4-(((R)-2-((1R,6S)-2-azabicyclo[4.1.0]heptan-2-yl)-1-(1-methyl-1H-pyrazol-4-yl)ethyl)amino)-6-phenyl-5,6,7,8-tetrahydroquinazolin-2-yl)(methyl)amino)propyl)cyclohexane-1-carboxylic acid] are 359 nM and 107.70 % of ANP.
In the same order, the values of `CC[C@H]([C@H]1CC[C@H](C(=O)O)CC1)N(C)c1nc2c(c(N[C@@H](CN3CC[C@@H](OC)C3)c3cnn(C)c3)n1)C[C@H](c1ccccc1)CC2` [Compound 181, (1R,4r)-4-((R)-1-(((R)-4-(((R)-2-((R)-3-methoxypyrrolidin-1-yl)-1-(1-methyl-1H-pyrazol-4-yl)ethyl)amino)-6-phenyl-5,6,7,8-tetrahydroquinazolin-2-yl)(methyl)amino)propyl)cyclohexane-1-carboxylic acid] are 1810 nM and 101.57 % of ANP.
As for `CC[C@H]([C@H]1CC[C@H](C(=O)O)CC1)N(C)c1nc2c(c(N[C@@H](CN3CCC[C@H](C)C3)c3cn(C)nc3F)n1)C[C@H](c1ccccc1)CC2` (stereo in doubt) [Compound 185, (1R,4r)-4-((R)-1-(((R)-4-(((S)-1-(3-fluoro-1-methyl-1H-pyrazol-4-yl)-2-((S)-3-methylpiperidin-1-yl)ethyl)amino)-6-phenyl-5,6,7,8-tetrahydroquinazolin-2-yl)(methyl)amino)propyl)cyclohexane-1-carboxylic acid], the AC50 turned out to be 201 nM and the “Human NPR1 Amax (% of ANP)” value was 98.01 % of ANP.
For `CC[C@H]([C@H]1CC[C@H](C(=O)O)CC1)N(C)c1nc2c(c(N[C@@H](CN3CCC[C@](C)(O)C3)c3cnn(C)c3)n1)C[C@H](c1ccccc1)CC2` [Compound 186, (1R,4r)-4-((R)-1-(((R)-4-(((R)-2-((S)-3-hydroxy-3-methylpiperidin-1-yl)-1-(1-methyl-1H-pyrazol-4-yl)ethyl)amino)-6-phenyl-5,6,7,8-tetrahydroquinazolin-2-yl)(methyl)amino)propyl)cyclohexane-1-carboxylic acid], in that order: 406 nM and 110.66 % of ANP.
